The test system of series [1] is gastric cancer cell lines. The series can be described thus: 5-FU sensitivity in vitro of gastric cancer cell lines assigned to the three subtypes by GCPred. It counts as cell-based. From the text: It was then examined whether there are differences in 5-FU sensitivity, in vitro, between gastric cancer cell lines assigned to the three subtypes.
GCPred was first used to predict the subtypes of 28 cell lines for which 5-FU GI50 values had previously been determined.

The test system of series [2] is gastric adenocarcinoma. As to the kind of experiment: Patient survival, surgery plus adjuvant 5-FU based therapy versus surgery alone (Kaplan-Meier, Cox regression). Format: in vivo, human. To be noted: for HR (95% CI): Multivariate Cox (treatment + stage). The method, then: A study was done to determine whether there was a difference in survival among the three subtypes. In this study, cancer-specific death was considered as an event unless stated otherwise.
Data from 188 patients in the SG201 Singapore cohort for which survival information was available was analyzed.
Many of the patients in the Singapore cohort were treated with 5-FU. To investigate the effect of 5-FU treatment on patient survival, the survival of Singapore and Australian patients treated with surgery alone were compared to that of patients treated by surgery and adjuvant 5-FU based therapy.
The clinical decision on administration of 5-FU was based on multiple factors, including the patient's general health, risk of relapse (estimated largely by disease stage), treatment-related toxicities, and patient preference.
FIGS. 8A to F show Kaplan-Meier plots for surgery plus 5-FU versus surgery alone for each of the three subtypes.

The test system of series [3] is NCI-60 cell lines. As to the kind of experiment: 5-FU sensitivity of NCI-60 cell lines classified into the three subtypes by GCPred. Format: cell-based. Particulars: metabolic versus invasive subtype NCI-60 cells, Wilcoxon rank sum test p=0.036. An excerpt: In addition, GCPred was used to classify the NCI-60 cell lines into the three subtypes.

Here are results for one compound from patent US20150254400A1, “GROUPING FOR C[…] CANCER” (AGENCY FOR SCIENCE, TECHNOLOGY AND RESEARCH, priority 2012, published 2015).

Entries after “also recorded” stand apart in the source; their conditions may differ.

In the case of `O=c1[nH]cc(F)c(=O)[nH]1` [5-FU, 5-fluorouracil], the “Sensitivity to 5-FU (GI50 values previously determined)” value in series [1] (28 cell lines, metabolic versus proliferative subtype cells, Wilcoxon rank sum test p=1.47×10-3) was “significantly more sensitive”. In addition, the “Chemosensitivity in cell lines” value in series [1] (metabolic subtype cell lines) is given as 5-FU. In addition, the “Hazard Ratio (95% CI), treatment” value in series [2] (197 patients in SG and AU cohorts, model ~subtype * treatment + stage, 5-FU vs surgery alone (=1)) is on record as 1.437 (0.728, 2.835). Also, the “Hazard Ratio (95% CI), subtype: treatment interaction, Invasive: 5-FU” value in series [2] (197 patients in SG and AU cohorts, model ~subtype * treatment + stage, reference Proliferative: 5-FU (=1)) is 0.722 (0.287, 1.817). Moreover, the “HR (95% CI)” value is 0.222 (0.059, 0.833) in series [2] (Australian cohort, invasive subtype, 5-FU vs surgery alone (=1)); 1.938 (0.369, 10.170) in series [2] (Australian cohort, proliferative subtype, 5-FU vs surgery alone (=1)); 1.062 (0.469, 2.407) in series [2] (Singapore cohort, invasive subtype, 5-FU vs surgery alone (=1)); 2.105 (0.879, 5.043) in series [2] (Singapore cohort, proliferative subtype, 5-FU vs surgery alone (=1)). In addition, the “Deaths among 5-FU treated patients” value in series [2] (Singapore cohort, metabolic subtype) is “no deaths”. In addition, in series [2] (Univariate Cox regression, Singapore cohort, all subtypes, 5-FU vs surgery alone (=1), cancer-specific death), the “Hazard ratio (95% CI)” value is 1.656 (0.983, 2.788). For the same compound, the entries for the “5-FU effect on patient survival” value in series [2] (invasive subtype), in series [2] (metabolic subtype) and in series [2] (proliferative subtype) were “No effect”, “Beneficial” and “No effect”, respectively. Also, the “Survival, Kaplan-Meier, surgery plus 5-FU versus surgery alone” value in series [2] (metabolic-subtype patients) is “benefited; also recorded: better”; in series [2] (patients with invasive and proliferative subtypes, not adjusted for TNM stage), “worse”. The “Disease-free survival, Kaplan-Meier, 5-FU treatment compared to surgery alone” value in series [2] (metabolic-subtype patients, log rank test p=0.025) is “benefited significantly”. Further, the “Benefit from 5-FU treatment by multivariate Cox regression” value in series [2] (patients with invasive and proliferative subtypes) is on record as “does not suggest any benefit”. In addition, the “Sensitivity to 5-FU” value in series [3] is reported as “preferential sensitivity”.
